Here are results for 18 compounds from patent publication US11254686B1 (Corvus Pharmaceuticals, Inc., priority 2017, dated 2022).

Like-named read-outs stand apart in the source and are kept apart here.

Data set [1] addresses adenosine A2B receptor (Homo sapiens (Human), UniProt P29275). Put plainly: Adenosine receptor activity assay (Table 1), A2B activity. It is filed as biochemical. Conditions: for IC50: read-out: Ave A2B cAMP IC50.
The target in data set [2] is T1, adenosine A3 receptor (Homo sapiens (Human), UniProt P0DMS8). Put plainly: A3 cAMP IC50 assay (Table 1). It is filed as biochemical.
In data set [3] the target is adenosine A2A receptor (Homo sapiens (Human), UniProt P29274). Kind of data set: Adenosine receptor activity assay (Table 1), A2A activity. The following applies: read-out: Ave A2A cAMP IC50. It is filed as biochemical.
In data set [4] the target is T2, adenosine A1 receptor (Homo sapiens (Human), UniProt P30542). Kind of data set: A1 cAMP IC50 assay (Table 1). It is filed as biochemical.
Data set [5] is described as follows: Hepatocyte (Hep) intrinsic clearance, human. It is filed as in vitro ADME. The following applies: hepatocytes.
Data set [6] in a line: Hepatocyte (Hep) intrinsic clearance, rat. It is filed as in vitro ADME. The following applies: hepatocytes.
The target of data set [7] is T1, adenosine A3 receptor. Put plainly: Adenosine receptor activity assay (Table 1), A3 cAMP. It is filed as biochemical.
The target of data set [8] is T2, adenosine A1 receptor. Put plainly: Adenosine receptor activity assay (Table 1), A1 cAMP. It is filed as biochemical.
Where [9] appears, read: A2A activity to A2B activity (A2A/A2B).
Setting [10] is: A2A activity to the A2B activity, A2A/A2B.

Sequence of adenosine A2A receptor (P29274 whole entry): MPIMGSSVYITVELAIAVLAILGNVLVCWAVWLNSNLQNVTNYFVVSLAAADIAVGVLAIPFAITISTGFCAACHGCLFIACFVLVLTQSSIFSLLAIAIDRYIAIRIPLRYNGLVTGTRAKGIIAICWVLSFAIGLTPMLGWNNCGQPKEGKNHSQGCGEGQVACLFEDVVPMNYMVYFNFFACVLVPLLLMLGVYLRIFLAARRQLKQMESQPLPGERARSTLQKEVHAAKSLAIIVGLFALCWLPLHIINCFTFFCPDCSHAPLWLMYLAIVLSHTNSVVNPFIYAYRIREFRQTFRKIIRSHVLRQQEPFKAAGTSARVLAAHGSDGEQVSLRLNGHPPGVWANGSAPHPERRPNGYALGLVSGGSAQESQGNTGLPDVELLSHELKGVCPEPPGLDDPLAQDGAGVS
Sequence of adenosine A2B receptor (P29275 whole entry): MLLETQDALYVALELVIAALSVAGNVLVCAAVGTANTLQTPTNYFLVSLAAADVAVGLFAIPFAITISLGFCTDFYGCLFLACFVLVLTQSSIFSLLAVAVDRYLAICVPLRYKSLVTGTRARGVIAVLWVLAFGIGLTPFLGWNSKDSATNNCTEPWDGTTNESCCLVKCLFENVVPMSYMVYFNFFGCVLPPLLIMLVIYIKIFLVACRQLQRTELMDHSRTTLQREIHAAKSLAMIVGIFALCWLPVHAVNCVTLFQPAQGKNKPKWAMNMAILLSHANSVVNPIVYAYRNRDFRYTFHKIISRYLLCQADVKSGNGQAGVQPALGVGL
T1 sequence (P0DMS8 whole entry): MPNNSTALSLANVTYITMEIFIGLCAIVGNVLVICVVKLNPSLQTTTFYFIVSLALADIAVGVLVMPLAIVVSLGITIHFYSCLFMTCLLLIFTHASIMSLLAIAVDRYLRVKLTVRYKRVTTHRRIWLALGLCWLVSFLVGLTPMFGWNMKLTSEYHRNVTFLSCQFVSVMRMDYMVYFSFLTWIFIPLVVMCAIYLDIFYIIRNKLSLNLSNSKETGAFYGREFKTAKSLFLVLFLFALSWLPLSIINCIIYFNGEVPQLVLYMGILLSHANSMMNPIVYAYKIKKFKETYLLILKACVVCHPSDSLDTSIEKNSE
T2 sequence (P30542 whole entry): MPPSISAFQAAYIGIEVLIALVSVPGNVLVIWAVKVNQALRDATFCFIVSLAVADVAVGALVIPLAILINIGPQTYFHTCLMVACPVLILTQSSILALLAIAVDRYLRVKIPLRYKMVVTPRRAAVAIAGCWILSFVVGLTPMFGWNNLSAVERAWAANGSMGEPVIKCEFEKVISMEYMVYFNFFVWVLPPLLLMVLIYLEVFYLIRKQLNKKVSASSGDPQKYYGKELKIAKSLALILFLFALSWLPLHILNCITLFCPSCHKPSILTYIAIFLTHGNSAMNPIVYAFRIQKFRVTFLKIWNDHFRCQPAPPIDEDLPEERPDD

With `O=C(NC1CCC1)c1nc(NCc2cncc(F)c2)nc2ccsc12` [Example Z171, N-Cyclobutyl-2-(((5-fluoropyridin-3-yl)methyl)amino)thieno[3,2-d]pyrimidine-4-carboxamide], the Ratio in data set [1] (setting [9]) is 22.94. For the same compound, the IC50 in data set [1] is less than 10 nM; in data set [2] it was more than 500 nM; in data set [3] it was 50 to 100 nM; in data set [4], 100 to 500 nM. Moreover, the values for the hepatocyte CLint in data set [5] and in data set [6] were 51.4 µL/min/1e6 cells and 91.4 µL/min/1e6 cells, respectively.

As to `O=C(NC1CC(O)C1)c1nc(NCc2cncc(F)c2)nc2ccsc12` (centres unmarked) [Example Z183, 2-(((5-Fluoropyridin-3-yl)methyl)amino)-N-((1s,3s)-3-hydroxycyclobutyl)thieno[3,2-d]pyrimidine-4-carboxamide], in data set [1] (setting [9]), the Ratio turned out to be 37.09. The IC50 was less than 10 nM in data set [1], more than 500 nM in data set [2], 100 to 500 nM in data set [3] and more than 500 nM in data set [4]. For the same compound, the hepatocyte CLint in data set [5] was 24.9 µL/min/1e6 cells; in data set [6], 23.7 µL/min/1e6 cells.

Take `COC1CN(C(=O)c2nc(N[C@@H](C)c3cncc(F)c3)nc3ccsc23)C1` [Example Z185, (S)-(2-((1-(5-Fluoropyridin-3-yl)ethyl)amino)thieno[3,2-d]pyrimidin-4-yl)(3-methoxyazetidin-1-yl)methanone]: the Ratio in data set [1] (setting [9]) was 46.14. Besides, the IC50 in data set [1] is less than 10 nM; in data set [2], more than 500 nM; in data set [3] it was 100 to 500 nM; in data set [4], more than 500 nM. Moreover, the results for the hepatocyte CLint in data set [5] and in data set [6] were 12 µL/min/1e6 cells and 37 µL/min/1e6 cells, respectively.

On to `CNc1cc2nc(N[C@@H](C)c3cccnc3)nc(C(=O)N3CC[C@H](O)C3)c2s1` [Example Z188, ((S)-3-Hydroxypyrrolidin-1-yl)(6-(methylamino)-2-(((S)-1-(pyridin-3-yl)ethyl)amino)thieno[3,2-d]pyrimidin-4-yl)methanone], for which the Ratio in data set [1] (setting [9]) was found to be 114.79. The IC50 in data set [1] is 10 to 50 nM; in data set [2], more than 500 nM; in data set [3], more than 500 nM; in data set [4] it was more than 500 nM. The hepatocyte CLint in data set [5] is 2.16 µL/min/1e6 cells; in data set [6] it was 10 µL/min/1e6 cells.

For `C[C@H](Nc1nc(C(=O)NC[C@@H](C)O)c2sccc2n1)c1cncc(F)c1` [Example Z190, 2-(((S)-1-(5-Fluoropyridin-3-yl)ethyl)amino)-N—((R)-2-hydroxypropyl)thieno[3,2-d]pyrimidine-4-carboxamide], in data set [1] (setting [9]), the Ratio is reported as 34.96. For the same compound, the IC50 in data set [1] was less than 10 nM; in data set [2], more than 500 nM; in data set [3], 50 to 100 nM; in data set [4], more than 500 nM. Further, the hepatocyte CLint is 10.1 µL/min/1e6 cells in data set [5] and 23.7 µL/min/1e6 cells in data set [6].

In the case of `C[C@H](O)CNC(=O)c1nc(N[C@@H](C)c2cncc(F)c2)nc2ccsc12` [Example Z191, 2-(((S)-1-(5-Fluoropyridin-3-yl)ethyl)amino)-N—((S)-2-hydroxypropyl)thieno[3,2-d]pyrimidine-4-carboxamide], in data set [1] (setting [9]), the Ratio was 45.25. For the same compound, the IC50 was less than 10 nM in data set [1], more than 500 nM in data set [2], 100 to 500 nM in data set [3] and more than 500 nM in data set [4]. For the same compound, the figures for the hepatocyte CLint in data set [5] and in data set [6] were 10.6 µL/min/1e6 cells and 26.7 µL/min/1e6 cells, respectively.

`CNc1cc2nc(N[C@@H](C)c3cncc(F)c3)nc(C(=O)N3CC[C@H](O)C3)c2s1` [Example Z197, (2-(((S)-1-(5-Fluoropyridin-3-yl)ethyl)amino)-6-(methylamino)thieno[3,2-d]pyrimidin-4-yl)((S)-3-hydroxypyrrolidin-1-yl)methanone]: the Ratio in data set [1] (setting [9]) was found to be 298.42. The IC50 was less than 10 nM in data set [1], more than 500 nM in data set [2], more than 500 nM in data set [3] and more than 500 nM in data set [4]. The hepatocyte CLint in data set [5] was 3.34 µL/min/1e6 cells; in data set [6], 16.2 µL/min/1e6 cells.

Turning to `Cc1cc2nc(N[C@@H](C)c3cncc(F)c3)nc(C(=O)N3CC(NC(=O)[C@H]4CCOC4)C3)c2s1` [Example Z599, (S)—N-(1-(2-(((S)-1-(5-Fluoropyridin-3-yl)ethyl)amino)-6-methylthieno[3,2-d]pyrimidine-4-carbonyl)azetidin-3-yl)tetrahydrofuran-3-carboxamide], the Ratio in data set [1] (setting [10]) turned out to be 1.22. For the same compound, the IC50 in data set [1] (cAMP) is 10 to 50 nM; in data set [7] it was 100 to 500 nM; in data set [8], more than 500 nM; in data set [3] (cAMP), 10 to 50 nM.

As for `C[C@H](Nc1nc(C(=O)N2CC(NC(=O)c3ccoc3)C2)c2sccc2n1)c1cncc(F)c1` [Example Z600, (S)—N-(1-(2-((1-(5-Fluoropyridin-3-yl)ethyl)amino)thieno[3,2-d]pyrimidine-4-carbonyl)azetidin-3-yl)furan-3-carboxamide], in data set [1] (setting [10]), the Ratio turned out to be 1.90. Besides, the IC50 was less than 10 nM in data set [1] (cAMP), 100 to 500 nM in data set [7], more than 500 nM in data set [8] and 10 to 50 nM in data set [3] (cAMP).

For the compound `C[C@H](Nc1nc(C(=O)N2CC(NC(=O)c3ccccc3)C2)c2sccc2n1)c1cncc(F)c1` [Example Z601, (S)—N-(1-(2-((1-(5-Fluoropyridin-3-yl)ethyl)amino)thieno[3,2-d]pyrimidine-4-carbonyl)azetidin-3-yl)benzamide], the Ratio in data set [1] (setting [10]) was found to be 0.90. Moreover, the IC50 was 10 to 50 nM in data set [1] (cAMP), 100 to 500 nM in data set [7], more than 500 nM in data set [8] and 10 to 50 nM in data set [3] (cAMP).

Take `C[C@H](Nc1nc(C(=O)N2CC(NC(=O)C3(C)CC3)C2)c2sccc2n1)c1cncc(F)c1` [Example Z603, (S)—N-(1-(2-((1-(5-Fluoropyridin-3-yl)ethyl)amino)thieno[3,2-d]pyrimidine-4-carbonyl)azetidin-3-yl)-1-methylcyclopropane-1-carboxamide]: in data set [1] (setting [10]), the Ratio is recorded as 1.00. Besides, the IC50 is less than 10 nM in data set [1] (cAMP), 100 to 500 nM in data set [7], more than 500 nM in data set [8] and less than 10 nM in data set [3] (cAMP).

For the compound `C[C@H](Nc1nc(C(=O)N2CC(NC(=O)C34CC(C3)C4)C2)c2sccc2n1)c1cncc(F)c1` [Example Z604, (S)—N-(1-(2-((1-(5-Fluoropyridin-3-yl)ethyl)amino)thieno[3,2-d]pyrimidine-4-carbonyl)azetidin-3-yl)bicyclo[1.1.1]pentane-1-carboxamide], the Ratio in data set [1] (setting [10]) came out at 0.88. Further, the IC50 in data set [1] (cAMP) was less than 10 nM; in data set [7], 100 to 500 nM; in data set [8], more than 500 nM; in data set [3] (cAMP), less than 10 nM.

Turning to `C[C@H](Nc1nc(C(=O)N2CC(NC(=O)C3CCCC3)C2)c2sccc2n1)c1cncc(F)c1` [Example Z605, (S)—N-(1-(2-((1-(5-Fluoropyridin-3-yl)ethyl)amino)thieno[3,2-d]pyrimidine-4-carbonyl)azetidin-3-yl)cyclopentanecarboxamide], the Ratio in data set [1] (setting [10]) is 0.77. In addition, the IC50 was less than 10 nM in data set [1] (cAMP), 100 to 500 nM in data set [7], more than 500 nM in data set [8] and less than 10 nM in data set [3] (cAMP).

Consider `C[C@H](Nc1nc(C(=O)N2CC(NC(=O)C(C)(C)C(F)(F)F)C2)c2sccc2n1)c1cncc(F)c1` [Example Z606, (S)-3,3,3-Trifluoro-N-(1-(2-((1-(5-fluoropyridin-3-yl)ethyl)amino)thieno[3,2-d]pyrimidine-4-carbonyl)azetidin-3-yl)-2,2-dimethylpropanamide], for which the Ratio in data set [1] (setting [10]) came to 0.47. For the same compound, the IC50 in data set [1] (cAMP) was less than 10 nM; in data set [7], 100 to 500 nM; in data set [8] it was more than 500 nM; in data set [3] (cAMP), less than 10 nM.

Regarding `C[C@H](Nc1nc(C(=O)N2CC(NC(=O)C3COC3)C2)c2sccc2n1)c1cncc(F)c1` [Example Z607, (S)—N-(1-(2-((1-(5-Fluoropyridin-3-yl)ethyl)amino)thieno[3,2-d]pyrimidine-4-carbonyl)azetidin-3-yl)oxetane-3-carboxamide], the Ratio in data set [1] (setting [10]) came out at 4.49. Moreover, the IC50 was 10 to 50 nM in data set [1] (cAMP), more than 500 nM in data set [7], more than 500 nM in data set [8] and 50 to 100 nM in data set [3] (cAMP).

On to `C[C@H](Nc1nc(C(=O)N2CC(NC(=O)C3(C)CCOC3)C2)c2sccc2n1)c1cncc(F)c1` (stereo partly drawn) [Example Z608, N-(1-(2-(((S)-1-(5-Fluoropyridin-3-yl)ethyl)amino)thieno[3,2-d]pyrimidine-4-carbonyl)azetidin-3-yl)-3-methyltetrahydrofuran-3-carboxamide], for which the Ratio in data set [1] (setting [10]) is 0.42. The IC50 is 10 to 50 nM in data set [1] (cAMP), more than 500 nM in data set [7], more than 500 nM in data set [8] and less than 10 nM in data set [3] (cAMP).

With `C[C@H](Nc1nc(C(=O)N2CC(NC(=O)C3(C(F)(F)F)CC3)C2)c2sccc2n1)c1cncc(F)c1` [Example Z609, (S)—N-(1-(2-((1-(5-Fluoropyridin-3-yl)ethyl)amino)thieno[3,2-d]pyrimidine-4-carbonyl)azetidin-3-yl)-1-(trifluoromethyl)cyclopropane-1-carboxamide], the Ratio in data set [1] (setting [10]) was 0.98. Also, the IC50 is less than 10 nM in data set [1] (cAMP), 100 to 500 nM in data set [7], more than 500 nM in data set [8] and less than 10 nM in data set [3] (cAMP).

With `C[C@H](Nc1nc(C(=O)N2CC(NC(=O)C3CCCCC3)C2)c2sccc2n1)c1cncc(F)c1` [Example Z610, (S)—N-(1-(2-((1-(5-Fluoropyridin-3-yl)ethyl)amino)thieno[3,2-d]pyrimidine-4-carbonyl)azetidin-3-yl)cyclohexanecarboxamide], the Ratio in data set [1] (setting [10]) was 0.24. Besides, the IC50 in data set [1] (cAMP) is less than 10 nM; in data set [7] it was 10 to 50 nM; in data set [8], more than 500 nM; in data set [3] (cAMP), less than 10 nM.
